Laboratory results taken from PubChem BioAssay AID1259411 (Chemical Carcinogenesis Research Information System (CCRIS), 2018).
The source made the active and inactive calls. How the calls were made is not given here.

Test system: rodent carcinogenicity bioassays, tumor incidence
Assay: CCRIS carcinogenicity studies
Procedure, shortened: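 NCI-built, expert-reviewed records of carcinogenicity and related test outcomes (mutagenicity, tumor promotion/inhibition) compiled from published and report sources, historical span 1985-2011, not updated.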

Fc1cccc2ncccc12
carcinogen call (Species: MOUSE, Strain/Sex: CD-1/FEMALE, Route: INTRAPERITONEAL, Dose: 0, 1.75 UMOL/MOUSE (TOTAL DOSE) ADMINISTERED DURING DAYS 1, 8, AND 15 OF LIFE (STUDY DURATION: 52 WK)): inactive; negative | carcinogen call (Species: MOUSE, Strain/Sex: CD-1/MALE, Route: INTRAPERITONEAL, Dose: 0, 1.75 UMOL/MOUSE (TOTAL DOSE) ADMINISTERED DURING DAYS 1, 8, AND 15 OF LIFE (STUDY DURATION: 52 WK), Tumor Site: Type of Lesion: LIVER: CARCINOMA): active; positive

O=[N+]([O-])c1ccc2ncccc2c1
carcinogen call (Species: RAT, Strain/Sex: F344/MALE,FEMALE, Route: ORAL, Dose: 0.05% IN DIET FOR 2 YR): inactive; negative

COC(=O)c1ccc(C)cc1C1=NC(C)(C(C)C)C(=O)N1 (centres undefined) (tested in a mixture with another compound)
carcinogen call (Species: Mouse, Strain/Sex: CD-1/Female (65/Group), Route: Oral, Dose: 0, 130, 525, 2100 ppm 94.2% imazamethabenz-methyl in diet for 18 mo, study duration 18 mo, Dose: 0, 130, 525, 2100 ppm 94.2% imazamethabenz-methyl in diet for 18 mo, study duration 18 mo): inactive; negative | carcinogen call (Species: Mouse, Strain/Sex: CD-1/Male (65/Group), Route: Oral, Dose: 0, 130, 525, 2100 ppm 94.2% imazamethabenz-methyl in diet for 18 mo, study duration 18 mo, Dose: 0, 130, 525, 2100 ppm 94.2% imazamethabenz-methyl in diet for 18 mo, study duration 18 mo): inactive; negative | carcinogen call (Species: Rat, Strain/Sex: Crl:CD(SD)BR/Female (65/Group), Route: Oral, Dose: 0, 240, 1000, 4000 ppm 94.2% imazamethabenz-methyl in diet for 24 mo, study duration 24 mo, Dose: 0, 240, 1000, 4000 ppm 94.2% imazamethabenz-methyl in diet for 24 mo, study duration 24 mo): inactive; negative | carcinogen call (Species: Rat, Strain/Sex: Crl:CD(SD)BR/Male (65/Group), Route: Oral, Dose: 0, 240, 1000, 4000 ppm 94.2% imazamethabenz-methyl in diet for 24 mo, study duration 24 mo, Dose: 0, 240, 1000, 4000 ppm 94.2% imazamethabenz-methyl in diet for 24 mo, study duration 24 mo): inactive; negative

O=NN1CC=CC[C@H]1c1cccnc1
carcinogen call (Species: RAT, Strain/Sex: F344/FEMALE, Route: SUBCUTANEOUS, Dose: 0, 1, 3, 9 MMOL/KG BW (TOTAL DOSE) WITH SUBDOSES GIVEN 3/WK FOR 20 WK WITH A 2 WK INTERRUPTION AFTER 7 WK (STUDY DURATIO, Dose: 0, 1, 3, 9 MMOL/KG BW (TOTAL DOSE) WITH SUBDOSES GIVEN 3/WK FOR 20 WK WITH A 2 WK INTERRUPTION AFTER 7 WK (STUDY DURATIO): inactive; negative | carcinogen call (Species: RAT, Strain/Sex: F344/MALE, Route: SUBCUTANEOUS, Dose: 0, 1, 3, 9 MMOL/KG BW (TOTAL DOSE) WITH SUBDOSES GIVEN 3/WK FOR 20 WK WITH A 2 WK INTERRUPTION AFTER 7 WK (STUDY DURATIO, Dose: 0, 1, 3, 9 MMOL/KG BW (TOTAL DOSE) WITH SUBDOSES GIVEN 3/WK FOR 20 WK WITH A 2 WK INTERRUPTION AFTER 7 WK (STUDY DURATIO): inactive; negative
